Measured values from US11304946B2, “2-hetarylpyrimidine-4-carboxamides as aryl hydrocarbon receptor antagonists” (Bayer Aktiengesellschaft, priority 2017, dated 2022).

Legend:
Human AhR = molecular target: T1, Human AhR (Homo sapiens, UniProt P35869); assay: Transactivation assay in human cell line (in vitro assay 1: antagonism); type: cell-based; conditions: U87 glioblastoma cells, AHR inducible (DRE) firefly luciferase reporter, 150 μM kynurenic acid, 20 hours
T1 construct: host or cells: U87 glioblastoma cells, stably transfected with DRE-driven firefly luciferase and constitutive renilla reporter constructs
T1 sequence (P35869 11-848): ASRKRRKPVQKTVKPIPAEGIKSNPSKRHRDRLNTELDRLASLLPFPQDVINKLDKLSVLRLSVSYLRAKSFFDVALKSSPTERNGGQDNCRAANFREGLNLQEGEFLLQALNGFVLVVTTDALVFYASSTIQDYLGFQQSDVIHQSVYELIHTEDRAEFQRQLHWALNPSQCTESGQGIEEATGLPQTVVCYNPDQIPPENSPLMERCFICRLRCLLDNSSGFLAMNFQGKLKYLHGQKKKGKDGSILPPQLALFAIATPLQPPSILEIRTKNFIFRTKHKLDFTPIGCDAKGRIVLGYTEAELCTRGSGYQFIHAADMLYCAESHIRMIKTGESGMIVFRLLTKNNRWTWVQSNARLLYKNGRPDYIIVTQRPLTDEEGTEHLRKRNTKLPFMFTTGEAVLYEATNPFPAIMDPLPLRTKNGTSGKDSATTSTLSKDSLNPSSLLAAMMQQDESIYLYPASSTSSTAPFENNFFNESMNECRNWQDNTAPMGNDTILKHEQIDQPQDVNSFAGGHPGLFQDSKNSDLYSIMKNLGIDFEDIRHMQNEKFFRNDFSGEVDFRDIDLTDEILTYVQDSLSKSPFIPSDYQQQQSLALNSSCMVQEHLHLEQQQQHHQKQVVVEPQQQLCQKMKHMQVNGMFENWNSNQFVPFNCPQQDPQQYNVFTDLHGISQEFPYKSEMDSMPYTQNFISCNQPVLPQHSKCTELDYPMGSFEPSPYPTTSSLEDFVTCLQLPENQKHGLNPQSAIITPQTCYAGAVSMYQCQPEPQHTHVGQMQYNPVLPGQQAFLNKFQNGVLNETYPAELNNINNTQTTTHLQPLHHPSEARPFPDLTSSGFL
Protocol: Transactivation Assay in Human Cell Line (In Vitro Assay 1)
(§1) Transactivation assay was carried out in U87 glioblastoma cells (ATCC) endogenously expressing AHR. In addition the cells were stably transfected with an AHR inducible firefly luciferase reporter gene construct that carried AHR-binding sites (DRE) in its promoter and a renilla reporter gene construct with constitutively active promoter. Kynurenic acid is an endogenous AHR activating ligand and was used to prestimulate test cells prior to testing the antagonistic properties of compounds.
In Vitro Assay 1: Antagonism in Human Cell Line
Firefly luciferase and Renilla activity was determined by the DualGlo Luciferase Assay System (Promega, #2920). Renilla activity was used to assess toxic effects of compounds.

Mouse AhR = molecular target: T2, Mouse AhR (Mus musculus, UniProt P30561); assay: Transactivation assay in mouse cell line (in vitro assay 2: antagonism); type: cell-based; conditions: Hepa 1c1c7 cells, AHR inducible (DRE) firefly luciferase reporter, 200 μM kynurenic acid, 20 hours
T2 sequence (P30561 1-848): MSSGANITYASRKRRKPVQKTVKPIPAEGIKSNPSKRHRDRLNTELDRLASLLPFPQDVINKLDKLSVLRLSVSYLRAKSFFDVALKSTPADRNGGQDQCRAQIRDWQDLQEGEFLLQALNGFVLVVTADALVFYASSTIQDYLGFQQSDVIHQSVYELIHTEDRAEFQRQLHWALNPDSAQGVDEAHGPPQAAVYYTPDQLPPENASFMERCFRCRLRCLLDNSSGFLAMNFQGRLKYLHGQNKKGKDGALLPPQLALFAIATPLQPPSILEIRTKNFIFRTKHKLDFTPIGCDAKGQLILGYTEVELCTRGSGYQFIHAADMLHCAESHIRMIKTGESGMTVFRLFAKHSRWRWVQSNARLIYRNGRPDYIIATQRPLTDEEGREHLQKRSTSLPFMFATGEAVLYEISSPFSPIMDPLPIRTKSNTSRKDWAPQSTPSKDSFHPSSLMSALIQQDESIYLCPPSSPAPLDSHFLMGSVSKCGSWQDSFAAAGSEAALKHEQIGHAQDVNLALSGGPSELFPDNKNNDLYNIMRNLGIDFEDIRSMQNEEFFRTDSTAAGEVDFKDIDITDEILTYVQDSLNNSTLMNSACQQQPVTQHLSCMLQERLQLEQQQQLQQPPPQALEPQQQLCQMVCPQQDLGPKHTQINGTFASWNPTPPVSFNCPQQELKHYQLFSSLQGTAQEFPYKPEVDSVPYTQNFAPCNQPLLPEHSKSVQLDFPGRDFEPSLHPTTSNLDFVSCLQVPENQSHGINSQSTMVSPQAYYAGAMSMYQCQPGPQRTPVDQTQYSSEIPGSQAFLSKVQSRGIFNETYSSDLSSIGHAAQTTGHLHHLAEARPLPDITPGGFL
Protocol: Transactivation Assay in Mouse Cell Line (In Vitro Assay 2)
as §1, with “Hepa 1c1c7” for “U87 glioblastoma”, “(ATCC #CRL-2026)” for “(ATCC)”, “its” for “its promoter and a renilla reporter gene construct with constitutively active”
In Vitro Assay 2: Antagonism in Mouse Cell Line
Firefly luciferase activity was determined by the SteadyGlo Luciferase Assay System (Promega, #E2550).

Compound	IC50 (Human AhR)	IC50 (Mouse AhR)
C[C@@H](CO)NC(=O)c1cc(-c2ccc(Cl)cc2)nc(-c2cnn(C)c2)n1 [Example 11, 6-(4-chlorophenyl)-N-[(2S)-1-hydroxypropan-2-yl]-2-(1-methyl-1H-pyrazol-4-yl)pyrimidine-4-carboxamide]	3.93 nM	7.94 nM
C[C@H](CO)NC(=O)c1cc(-c2ccc(Cl)cc2)nc(-c2cnn(C)c2)n1 [Example 12, 6-(4-chlorophenyl)-N-[(2R)-1-hydroxypropan-2-yl]-2-(1-methyl-1H-pyrazol-4-yl)pyrimidine-4-carboxamide]	73.4 nM	206 nM
Cn1cc(-c2nc(C(=O)NCC(C)(C)O)cc(-c3ccc(Cl)cc3)n2)cn1 [Example 13, 6-(4-chlorophenyl)-N-(2-hydroxy-2-methylpropyl)-2-(1-methyl-1H-pyrazol-4-yl)pyrimidine-4-carboxamide]	14.3 nM	58.1 nM
CC(C)(O)CNC(=O)c1cc(-c2ccc(OC(F)(F)F)cc2)nc(-c2cn[nH]c2)n1 [Example 20, N-(2-hydroxy-2-methylpropyl)-2-(1H-pyrazol-4-yl)-6-[4-(trifluoromethoxy)phenyl]pyrimidine-4-carboxamide]	717 nM	354 nM
Cc1ncc(-c2nc(C(=O)NCC(C)(C)O)cc(-c3ccc(OC(F)(F)F)cc3)n2)cn1 [Example 21, N-(2-hydroxy-2-methylpropyl)-2′-methyl-6-[4-(trifluoromethoxy)phenyl][2,5′-bipyrimidine]-4-carboxamide]	379 nM	2130 nM
CC(C)(O)CNC(=O)c1cc(-c2ccc(OC(F)(F)F)cc2)nc(-c2cnoc2)n1 [Example 22, N-(2-hydroxy-2-methylpropyl)-2-(1,2-oxazol-4-yl)-6-[4-(trifluoromethoxy)phenyl]pyrimidine-4-carboxamide]	1100 nM	5530 nM
Cc1[nH]ncc1-c1nc(C(=O)NCC(C)(C)O)cc(-c2ccc(OC(F)(F)F)cc2)n1 [Example 24, N-(2-hydroxy-2-methylpropyl)-2-(3-methyl-1H-pyrazol-4-yl)-6-[4-(trifluoromethoxy)phenyl]pyrimidine-4-carboxamide]	208 nM	359 nM
Cc1nn(C)cc1-c1nc(C(=O)NCC(C)(C)O)cc(-c2ccc(OC(F)(F)F)cc2)n1 [Example 25, 2-(1,3-dimethyl-1H-pyrazol-4-yl)-N-(2-hydroxy-2-methylpropyl)-6-[4-(trifluoromethoxy)phenyl]pyrimidine-4-carboxamide]	8.05 nM	110 nM
C[C@@H](CO)NC(=O)c1cc(-c2ccc(OC(F)(F)F)cc2)nc(-c2ccc(C#N)s2)n1 [Example 28, 2-(5-cyanothiophen-2-yl)-N-[(2S)-1-hydroxypropan-2-yl]-6-[4-(trifluoromethoxy)phenyl]pyrimidine-4-carboxamide]	167 nM	229 nM
C[C@@H](CO)NC(=O)c1cc(-c2ccc(OC(F)(F)F)cc2)nc(-c2ccc(Cl)s2)n1 [Example 32, 2-(5-chlorothiophen-2-yl)-N-[(2S)-1-hydroxypropan-2-yl]-6-[4-(trifluoromethoxy)phenyl]pyrimidine-4-carboxamide]	46.2 nM	38.8 nM
C[C@@H](CO)NC(=O)c1cc(-c2ccc(OC(F)(F)F)cc2)nc(-c2ccnn2C)n1 [Example 34, N-[(2S)-1-hydroxypropan-2-yl]-2-(1-methyl-1H-pyrazol-5-yl)-6-[4-(trifluoromethoxy)phenyl]pyrimidine-4-carboxamide]	29.6 nM	24 nM
Cc1noc(C)c1-c1nc(C(=O)N[C@@H](C)CO)cc(-c2ccc(OC(F)(F)F)cc2)n1 [Example 35, 2-(3,5-dimethyl-1,2-oxazol-4-yl)-N-[(2S)-1-hydroxypropan-2-yl]-6-[4-(trifluoromethoxy)phenyl]pyrimidine-4-carboxamide]	1030 nM	5310 nM
CC(C)Cn1cc(-c2nc(C(=O)N[C@@H](C)CO)cc(-c3ccc(OC(F)(F)F)cc3)n2)cn1 [Example 36, N-[(2S)-1-hydroxypropan-2-yl]-2-[1-(2-methylpropyl)-1H-pyrazol-4-yl]-6-[4-(trifluoromethoxy)phenyl]pyrimidine-4-carboxamide]	5220 nM	10000 nM
C[C@@H](CO)NC(=O)c1cc(-c2ccc(OC(F)(F)F)cc2)nc(-c2cc[nH]n2)n1 [Example 37, N-[(2S)-1-hydroxypropan-2-yl]-2-(1H-pyrazol-3-yl)-6-[4-(trifluoromethoxy)phenyl]pyrimidine-4-carboxamide]	71.7 nM	93 nM
Cc1ccc(-c2nc(C(=O)N[C@@H](C)CO)cc(-c3ccc(OC(F)(F)F)cc3)n2)cn1 [Example 39, N-[(2S)-1-hydroxypropan-2-yl]-2-(6-methylpyridin-3-yl)-6-[4-(trifluoromethoxy)phenyl]pyrimidine-4-carboxamide]	68.4 nM	431 nM
COc1ccncc1-c1nc(C(=O)N[C@@H](C)CO)cc(-c2ccc(OC(F)(F)F)cc2)n1 [Example 40, N-[(2S)-1-hydroxypropan-2-yl]-2-(4-methoxypyridin-3-yl)-6-[4-(trifluoromethoxy)phenyl]pyrimidine-4-carboxamide]	4.24 nM	42.6 nM
C[C@@H](CO)NC(=O)c1cc(-c2ccc(OC(F)(F)F)cc2)nc(-c2cn[nH]c2)n1 [Example 41, N-[(2S)-1-hydroxypropan-2-yl]-2-(1H-pyrazol-4-yl)-6-[4-(trifluoromethoxy)phenyl]pyrimidine-4-carboxamide]	97.6 nM	55.8 nM
Cc1nn(C)cc1-c1nc(C(=O)N[C@@H](C)CO)cc(-c2ccc(OC(F)(F)F)cc2)n1 [Example 43, 2-(1,3-dimethyl-1H-pyrazol-4-yl)-N-[(2S)-1-hydroxypropan-2-yl]-6-[4-(trifluoromethoxy)phenyl]pyrimidine-4-carboxamide]	25.2 nM	271 nM
CC(C)(O)CNC(=O)c1cc(-c2ccc(Cl)cc2)nc(-c2ccc(C#N)s2)n1 [Example 47, 6-(4-chlorophenyl)-2-(5-cyanothiophen-2-yl)-N-(2-hydroxy-2-methylpropyl)pyrimidine-4-carboxamide]	317 nM	961 nM
Cn1nccc1-c1nc(C(=O)NCC(C)(C)O)cc(-c2ccc(Cl)cc2)n1 [Example 54, 6-(4-chlorophenyl)-N-(2-hydroxy-2-methylpropyl)-2-(1-methyl-1H-pyrazol-5-yl)pyrimidine-4-carboxamide]	36.6 nM	41.1 nM
CC(C)(O)CNC(=O)c1cc(-c2ccc(Cl)cc2)nc(-c2cncnc2)n1 [Example 55, 6-(4-chlorophenyl)-N-(2-hydroxy-2-methylpropyl)[2,5′-bipyrimidine]-4-carboxamide]	10.3 nM	17.3 nM
